# Test results: patent publication US11366090B2, “Method for the inactivation and inactivation testing of xeno antigens in foods of animal origin, particularly for milk and derivatives, and in foods of plant origin, particularly for milk substitutes based on soy and/or rice” (Biocompatibility Innovation S.R.L., priority 2016, dated 2022)
# Columns and labels:
# alpha-Gal epitope [1] = experiment: inactivation test of alpha-Gal epitopes in samples of milk substitutes based on rice and soya (M86 antibody incubation, centrifugation, alpha-Gal/HSA ELISA); assay type: biochemical; settings: milk substitute based on rice and soya, caffeic acid 0.3% w/v (method: 0.5±0.05% w/v), ambient temperature
# Procedure: Three solutions are made up, using a milk substitute based on rice and soya as solvent, for example a substitute comprising 17% rice, 17% soy seeds, in a total volume of 50 ml. In the present example, which is non-limiting of the invention, extracts of “Lippia citriodora” are used, titrated at 93% verbascoside. […] These solutions are left to act under moderate but constant stirring, for a total of 3±0.1 hours at 25±5° C. Samples are taken at 30±2 minutes, 1±0.1 hour and 3±0.1 hours. An aliquot of milk is taken from each sampling, comprised between 200 and 500 ul, and preferably a dose of 300 ul, to which a buffer is added, Na3C6H5O7 at pH 7.0±0.5, until a final volume is reached comprised between 1000 and 1500 ul, and preferably a final volume of 1500 ul. Then a murine antibody, directed against the alpha-Gal epitope, is added, for example an IgM clone called M86, at the preferable concentration of [1:50] w/v and the whole is incubated for 120±10 minutes at 37±2° C. under constant but moderate stirring. At the end the samples are subjected to centrifugation at 10,000×g for 30±2 minutes at 4±2° C. During incubation with the M86 antibody, a plate with 96 wells is prepared with 100 ul per well of alpha-Gal/HSA (Human Serum Albumin) at 5 ug/ml in a PBS buffer (pH 7.0±0.5). The plate thus prepared is incubated for 60±10 minutes at a temperature comprised between 30° C.-40° C., although it is preferable to stabilize everything at 37±2.0° C. Then 3 washes are carried out with 300 ul per well of PBS (physiological pH) at ambient temperature. The first wash is left to act for 5 minutes, the two subsequent washes for 3 minutes each. […] Then 50 ul per well of the stop solution is added, which is constituted by H2SO4 2M and the plate is then read in a plate reader at the wavelength of 450 nm. The test of inactivation is based on the comparison between the absorbance values of column number 1 which constitutes the blank value (100% of antibody available) and the respective columns of the samples. […]
# alpha-Gal epitope [2] = experiment: inactivation test of alpha-Gal epitopes in samples of cow's milk (M86 antibody incubation, centrifugation, alpha-Gal/HSA ELISA); assay type: biochemical; settings: 0.5% w/v, ambient temperature
# Procedure: incubating samples of milk with the addition of an antibody aimed at the alpha-Gal epitope that is present in the milk; in such embodiment, the antibody is for example a murine monoclonal antibody M86; it should be understood that all mono- or polyclonal antibodies and/or antibodies belonging to different isotypes, which have shown a proven specificity against the antigen in question, can be used; in general, the anti-xenoantigen antibody is an antibody specifically aimed at the alpha-Gal epitope;
# separating, by way of centrifugation, the resulting immune complex created owing to the bond between antigen and antibody;
# preparing a plate with 96 wells for the E.L.I.S.A. text with coating comprising the xenoantigen epitope, i.e. an alpha-Gal/human serum albumin coating;
# adding, in the wells, supernatant taken from the milk samples subjected to centrifuge; the supernatant contains the part of anti-alpha-Gal antibody that has not bonded with epitopes; as is known, a column of wells is adapted to define a reference value, known in the jargon as ‘blank value’, that corresponds to the maximum signal between antibody and epitopes,
# completing the plate with a secondary antibody conjugated with an enzyme, or other molecule for qualitative or quantitative evaluation through colorimetric assay, adapted to chromatically highlight the presence if any of the anti-alpha-Gal antibody; in the present embodiment, the secondary antibody is constituted by a rabbit polyclonal anti-mouse antibody, conjugated with the peroxidase enzyme, or with other types, enzymatic or otherwise, capable of providing qualitative or quantitative indications through colorimetric assay;
# reading the plate, determining the presence of anti-alpha-Gal antibody that has remained free in the solutions of the samples;
# comparing the absorbance values detected in the column that defines the reference values with the values detected in the other columns of samples of the plate.
# Two solutions are made up with different concentrations of phenylpropanoid, using the milk as solvent in a total volume of 50 ml. In this specific example, which obviously should be understood to be non-limiting of the invention, an extract of “Lippia Citriodora” was used, titrated at 93% verbascoside. […]
# These solutions are left to act under moderate but constant stirring, for a total of […] at 25±5° C.
# Samples are taken at 30±2 minutes, 1±0.1 hour and 3±0.1 hours.
# An aliquot of milk is taken from each sampling, comprised between 200 ul and 500 ul, and preferably 300 ul, to which a buffer is added, Na3C6H5O7 0.2M at pH 7.0±0.5, until a final volume is reached comprised between 1000 ul and 1500 ul, and preferably a final volume of 1500 ul.
# Then a murine antibody, directed against the alpha-Gal epitope, is added (in the present example this is an IgM clone called M86), at the preferable concentration of [1:50] w/v and the whole is incubated for 120±10 minutes at 37±2° C. under constant but moderate stirring.
# At the end the samples are subjected to centrifugation at 10,000×g for 30±2 minutes at 4±2° C.
# During incubation with the M86 antibody, a plate with 96 wells is prepared with 100 ul per well of alpha-Gal/HSA (Human Serum Albumin) at 5 ug/ml in a PBS buffer (pH 7.0±0.5).
# The plate thus prepared is incubated for 60±10 minutes at a temperature comprised between 30° C.-40° C., although it is preferable to stabilize everything at 37° C.±2.0° C.
# Then 3 washes are carried out with 300 ul per well of PBS (physiological pH) at ambient temperature.
# The first wash is left to act for 5 minutes, the two subsequent washes for 3 minutes each.
# The blocking is done with 300 ul per well of 2±0.5% of serum albumin in PBS, followed by covering the plate with protective film and incubation for 60±10 minutes at ambient temperature, in darkness.
# Subsequently 3 washes are performed as above. […]
Compound,antigens inactivated (alpha-Gal epitope [1]; after 30 minutes) [%],antigens inactivated (alpha-Gal epitope [1]; after 1 hour) [%],antigens inactivated (alpha-Gal epitope [1]; after 3 hours of incubation) [%],antigens inactivated (alpha-Gal epitope [2]; after 30 minutes) [%],antigens inactivated (alpha-Gal epitope [2]; after 1 hour) [%],antigens inactivated (alpha-Gal epitope [2]; after 3 hours of incubation) [%]
O=C(O)/C=C/c1ccc(O)c(O)c1 [caffeic acid],61.8±2.8,78.3±4.1,89.2±1.8,51.2±4.2,61.1±2.6,72.3±2.8
O=C(OC[C@H]1O[C@@H](OC(=O)c2cc(O)c(O)c(OC(=O)c3cc(O)c(O)c(O)c3)c2)[C@H](OC(=O)c2cc(O)c(O)c(OC(=O)c3cc(O)c(O)c(O)c3)c2)[C@@H](OC(=O)c2cc(O)c(O)c(OC(=O)c3cc(O)c(O)c(O)c3)c2)[C@@H]1OC(=O)c1cc(O)c(O)c(OC(=O)c2cc(O)c(O)c(O)c2)c1)c1cc(O)c(O)c(OC(=O)c2cc(O)c(O)c(O)c2)c1 [tannic acid],–,–,–,67.7±7.1,71.8±2.2,80.6±1.8
